Read-outs that look alike come from different tables or passages of the source.
Key:
[1] = system: T. cruzi epimastigotes, Tulahuen 2 strain (genotype TcVI); experiment: In vitro anti-T. cruzi activity, growth inhibition of epimastigotes; type: cell-based, Trypanosoma cruzi; conditions: for IC50: Trypanosoma cruzi, TULAHUEN; for SI J774.1/ T. cruzi: ratio IC50 mammalian cell / IC50 parasite (epimastigotes); for Trypanocidal activity on T. cruzi in words: molecular stripping, epimastigotes
Method: For the in vitro anti-T. cruzi activity, we used epimastigotes of the Tulahuen 2 strain (genotype TcVI) grown in an axenic milieu (BHI-Tryptose). Cells from a 5–7-day-old culture were inoculated in fresh culture milieu to give an initial concentration of 1.00 × 10^6 cells/mL. The absorbance at 600 nm of the cells in culture was measured every day. At Day 5, the milieu was inoculated with different quantities of the compounds from a stock solution in DMSO (DMSO concentration in the culture milieu never exceeded 0.4%). The control was made in the presence of 0.4% DMSO and in the absence of compounds. Each concentration of compound was evaluated in duplicate. At Day 5, the absorbance of the culture was measured and related to the control. […] Each antiproliferative experiment was done in duplicate, and each concentration was tested in triplicate.

[2] = system: J774.1 murine macrophages; experiment: Nonspecific cytotoxicity on macrophages, MTT; type: cell-based; conditions: J774.1, 48 h, read-out: IC50 ± SD Murine Macrophages
Method: (§1) To establish the selectivity of the compounds against the parasites, nonspecific cytotoxicity against mammalian cells, using J774.1 murine macrophages and fibroblast NCTC929, was studied for the most relevant derivatives. The selectivity indexes were calculated as the ratio between cytotoxicity for mammalian cells and the anti-parasitic activity (Table 2).
J774.1 murine macrophage cells (ATCC, USA) were grown in DMEM culture milieu containing 4 mM L-glutamine and supplemented with 10% FCS. The cells were seeded in a 96-well plate (5.00 × 10^4 cells in 200 µL culture medium) and incubated at 37 °C in a 5% CO2 atmosphere for 48 h, to allow cell adhesion prior to drug testing. Afterwards, cells were exposed for 48 h to the compounds (25–400 μM) or the vehicle for control (0.4% DMSO), and additional controls (cells in medium) were used in each test. Cell viability was then assessed by measuring the mitochondria-dependent reduction of MTT (3-(4,5-dimethylthiazol-2-yl)-2,5-diphenyltetrazolium bromide) to formazan. For this purpose, MTT in sterile PBS (0.2% glucose), pH 7.4, was added to the macrophages to achieve a final concentration of 0.1 mg/mL, and the cells were incubated at 37 °C for 3 h. After removing the medium, formazan crystals were dissolved in 180 μL of DMSO and 20 μL of MTT buffer (0.1 M glycine, 0.1 M NaCl, 0.5 mM EDTA, pH 10.5), and the absorbance at 560 nm was measured. The IC50 was defined as the drug concentration at which 50% of the cells were viable, relative to the control (no drug added), and was determined by analysis using OriginLab8.5® sigmoidal regression (% of viable cells vs. the logarithm of the compound concentration). Tests were performed in triplicate.

zebrafish embryos = experiment: Zebrafish embryo toxicity test (LD50); conditions: for LD50 without chorion: dechorionated zebrafish embryos, 72 h incubation; for LD50 with chorion: zebrafish embryos with chorion
Method: […] Only embryos that were clearly undamaged after 60 min of observation were kept and subsequently used. Dechorionated embryos were further manipulated using flame-rounded tip glass Pasteur pipettes. […] In all cases, the embryos were incubated in system water with 1% DMSO (negative control) and the compound at different doses between 8 and 96 hpf. The treatment solution was changed daily. […] At selected time points, namely 24, 48, 72 and 96 hpf, embryotoxicity (= mortality) and morphological characteristics of the embryos were evaluated using a Nikon SMZ800 stereomicroscope. The embryos were evaluated for the presence and morphological development (as appropriate) of somites, tail detachment, eyes, heart beat and blood circulation. All individuals were evaluated at all time points.

[3] = system: L. braziliensis promastigotes; experiment: Leishmanicidal activity on promastigotes, resazurin; type: cell-based, Leishmania braziliensis; conditions: for IC50: 48 h, read-out: IC50 ± SD Promastigotes L. braziliensis; for SI NCTC/ L. braziliensis: ratio IC50 mammalian cell / IC50 parasite (promastigotes)
Excerpt: (§2) We initially selected compounds previously reported to have anti-T. cruzi activity from our chemical library to evaluate their leishmanicidal activity. […]. To evaluate their activity in Leishmania spp., we performed a phenotypic screening using the promastigote form of L. infantum (MHOM/FR/91/LEM-2259) and L. braziliensis ([…]) (Table 1A for the thiazolidenehydrazine derivate and Table 1B for the arylideneketones family).
(§3) A culture of L. braziliensis (MHOM/BR/75/M2904) and L. infantum (MHOM/FR/91/LEM2259V) was obtained from the Facultad de Farmacia (Universidad Complutense, Madrid, Spain). The maintenance of the strains, the form of cultivation and the isolation of the shape of the promastigote were performed following the procedures described by Roldos et al.. The promastigotes were grown at 22 °C in Schneider’s Drosophila medium supplemented with 20% FBS. The assay was performed using a modification of a previous method. Promastigotes (2 × 10^6 parasites/well) were cultivated in 96-well plastic plates. Compounds were dissolved in dimethylsulfoxide (DMSO). Different dilutions of the compounds with a final volume up to 200 µL were added. After 48 h at 26 °C, 20 µL of a 2 mM resazurin solution were added, and the oxidation-reduction was quantified at 570 and 600 nm. The solution of resazurin was prepared at 2.5 mM in phosphate buffered solution (PBS), pH 7.4, and filtered through 0.22-µm membranes prior to use. All tests were carried out in triplicate. Resazurin sodium salt was obtained from Sigma-Aldrich (St. Louis, MO, USA) and stored at 4 °C protected from light. The efficacy of each compound was estimated by calculating the IC50 values. Each antiproliferative experiment was done in duplicate, and each concentration was tested in triplicate.

[4] = system: L. infantum promastigotes; experiment: as above; type: cell-based, Leishmania infantum; conditions: for IC50: 48 h, read-out: IC50 ± SD Promastigotes L. infantum; for SI NCTC/ L. infantum: ratio IC50 mammalian cell / IC50 parasite (promastigotes)
Excerpt: as §2, §3

NCTC929 fibroblasts = experiment: Nonspecific cytotoxicity on fibroblasts, resazurin; type: cell-based; conditions: NCTC-929, 24 h; read-out: IC50 ± SD Fibroblast NCTC929
Method: as §1
NCTC-Clone 929 were grown in minimal essential medium (Sigma) supplemented with 10% heat-inactivated FBS, penicillin G (100 U/mL) and streptomycin (100 µg/mL). Cell cultures were maintained at 37 °C in a humidified 5% CO2 atmosphere. The procedure for cell viability measurement was evaluated with resazurin by a colorimetric method. The cells were plated in 96 microtiter plates at 3.00 × 10^4 cells/well in 100 µL growth medium. The cells were grown overnight at 37 °C, 5% CO2. Thereafter, the medium was removed, and the compounds were added to 200 µL of medium for 24 h. After incubation, 20 µL of a 2 mM resazurin solution were added to each well. The plates were incubated for 3 h to allow optimal oxidation-reduction. The reduction of resazurin was determined by dual wavelength absorbance measurement at 490 and 595 nm. The background was subtracted. Each concentration was assayed three times. Medium and drug controls were used in each test as blanks.

[5] = Tulahuen 2 strain, read-out: IC50 ± SD Epimastigotes T. cruzi
[6] = Figure 4, molecular stripping of HIT1, read-out: Effect of structural change on trypanocidal activity (emoticon code)

| Compound | IC50 [1, 5] [µM] | SI J774.1/ T. cruzi [1] | IC50 ([2]; Mus musculus) [µM] | LD50 without chorion (zebrafish embryos) [µM] | LD50 with chorion (zebrafish embryos) [µM] | IC50 ([3]; Leishmania braziliensis) [µM] | IC50 ([4]; Leishmania infantum) [µM] | SI NCTC/ L. infantum [4] | IC50 [1, 6] [µM] | SI NCTC/ L. braziliensis [3] | IC50 (NCTC929 fibroblasts) [µM] | melting point | IC50 [3] [µM] | IC50 [4] [µM] | IC50 [2] [µM] | Trypanocidal activity on T. cruzi in words [1] |
| --- | --- | --- | --- | --- | --- | --- | --- | --- | --- | --- | --- | --- | --- | --- | --- | --- |
| O=C(Cn1ccnc1[N+](=O)[O-])NCc1ccccc1 [Benznidazole, reference compound] | 7 ± 1 | 57 | 400 ± 4 | > 1000 | > 1000 | – | – | – | – | – | – | – | – | – | – | – |
| CCCCCCCCCCCCCCCCOP(=O)([O-])OCC[N+](C)(C)C [Miltefosine, reference compound] | 8 ± 1 | 6 | 50 ± 7 | – | – | 0.9 ± 0.2 | 0.9 ± 0.2 | 56 | – | – | – | – | – | – | – | – |
| Cc1ccc(/C=C/C=C/C(/C=C/C=C/c2ccc(C)o2)=NN2CCN(CC=Cc3ccccc3)CC2)o1 [GAT1113, N-((1E,3E,6E,8E)-1,9-bis(5-methylfuran-2-yl)nona-1,3,6,8-tetraen-5-ylidene)-4-cinnamylpiperazin-1-amine] | 1.6 ± 0.3 | 28 | 45 ± 5 | – | – | 16 ± 4 | 14 ± 2 | 12 | < 5 | 10 | 165 ± 5 | 148 to 150 °C | – | – | – | – |
| C(=C\c1ccco1)/C=N/N1CCN(Cc2ccccc2)CC1 [GAT1912, (E)-4-benzyl-N-((E)-3-(furan-2-yl)allylidene)piperazin-1-amine] | > 25 | – | – | – | – | > 100 | > 100 | – | > 25 | – | – | 145 to 147 °C | – | – | – | – |
| C=CCn1c(C(=O)CN2CCN(CC=Cc3ccccc3)CC2)cs/c1=N/N=C\C=C\c1ccco1 [GATk6, 1-((Z)-3-allyl-2-((E)-((E)-3-(furan-2-yl)allylidene)hydrazono)-2,3-dihydrothiazol-4-yl)-2-(4-cinnamylpiperazin-1-yl)ethanone] | 1.2 ± 0.3 | – | – | – | – | > 25 | > 25 | – | < 5 | – | – | 140 to 142 °C | – | – | – | – |
| Clc1ccc(-c2csc(N/N=C/C=C/c3ccco3)n2)cc1 [GAT2212B] | 1.2 ± 0.3 | – | – | – | – | > 25 | 25 | – | – | – | – | 212 °C (dec.) | – | – | – | – |
| CC(=O)N1CCN(c2ccc(OCC3COC(Cn4ccnc4)(c4ccc(Cl)cc4Cl)O3)cc2)CC1 (centres unmarked) [Ketoconazole, reference compound] | – | – | – | 12 ± 3 | > 25 | – | – | – | – | – | – | – | – | – | – | – |
| Glucantime [reference compound] | – | – | – | – | – | – | – | 0.5 | – | 1 | – | – | 18 ± 2 | 26 ± 9 | 15 ± 1 | – |
| C=CCn1c(-c2ccc(Cl)cc2)cs\c1=N/N=C/C(C)=C/c1ccco1 [GAT0513] | 0.09 ± 0.02 | 611 | 55 ± 5 | – | – | 33 ± 11 | 58 ± 12 | 25 | – | 44 | 1440 ± 30 | 228 °C (dec.) | – | – | – | active against T. cruzi |
| C=CCn1c(-c2ccc(Cl)cc2)cs\c1=N/N=C/C=C/c1ccc(C)o1 [GAT0113A] | 3 ± 0.5 | 22 | 66 ± 7 | – | – | 10 ± 1 | 8 ± 2 | 40 | – | 32 | 319 ± 16 | 220 °C (dec.) | – | – | – | equipotent to the parent compound |
| C(=Cc1ccccc1)CN1CCN(/N=C/C=C/c2ccco2)CC1 [GAT0913b, (E)-4-cinnamyl-N-((E)-3-(furan-2-yl)allylidene)piperazin-1-amine] | > 25 | 1 | 25 ± 3 | – | – | 18 ± 5 | 21 ± 2 | 8 | > 25 | 9 | 160 ± 7 | – | – | – | – | the activity was lost |
| C=CCn1c(C(=O)CNN2CCN(CC=Cc3ccccc3)CC2)cs/c1=N/N=C\C=C\c1ccco1 [GAT0613, 1-((Z)-3-allyl-2-((E)-((E)-3-(furan-2-yl)allylidene)hydrazono)-2,3-dihydrothiazol-4-yl)-2-((4-cinnamylpiperazin-1-yl)amino)ethanone] | 11 ± 4 | – | – | – | – | 25 | > 25 | – | – | – | – | 150 to 153 °C | – | – | – | the activity was lost |
